{"source": "patent US20220243177A1", "about": "“METHODS OF CULTURING QUIESCENT HEMATOPOIETIC STEM CELLS AND TREATMENT METHODS” (priority 2019, published 2022)", "key": {"[1]": {"tested_on": "MMP-low and MMP-high HSCs", "assay": "Long term culture-initiating cell (LTC-IC) assay", "format": "cell-based, mouse", "procedure": "Long Term Culture-Initiating Cell (“LTC-IC”) Assay: Long-term cultures were initiated as described in Lemieux et al., “Characterization and Purification of a Primitive Hematopoietic Cell Type in Adult Mouse Marrow Capable of Lymphomyeloid Differentiation in Long-Term Marrow ‘Switch’ Cultures,” Blood 86: 1339-1347 (1995), which is hereby incorporated by reference in its entirety. […] The frequency of long-term culture-initiated cells (“LTC-ICs”) was determined by limiting dilution and applying Poisson distribution statistics as described in Hu & Smyth, “ELDA: Extreme Limiting Dilution Analysis for Comparing Depleted and Enriched Populations in Stem Cell and Other Assays,” J. Immunol. Methods 347: 70-78 (2009), which is hereby incorporated by reference in its entirety."}, "[2]": {"tested_on": "MMP-low and MMP-high LT-HSCs transplanted into lethally irradiated mice", "assay": "Competitive in vivo long-term reconstitution assay after ex vivo lysosomal inhibition", "set-up": "species or system mouse", "procedure": "Competitive In Vivo Long-Term Reconstitution Assay: MMP-low and MMP-high HSCs (LSKCD150^+CD48^−, LT-HSC; MMP^low/high) were FACS purified from CD45.1 mice and transplanted at the indicated dose of test cells with 2×10^5 CD45.2 bone marrow cells into lethally irradiated CD45.2 recipients (12 Gy as a split dose, 6.5 and 5.5 Gy, 4 hours apart). Donor (CD45.1) and recipient (CD45.2) mice were 8-12 weeks old. HSC frequency was determined by the limiting dilution assay (Hu & Smith, “ELDA: Extreme Limiting Dilution Analysis for Comparing Depleted and Enriched Populations in Stem Cell and Other Assays,” J. Immunol. Methods 347:7 0-78 (2009), which is hereby incorporated by reference in its entirety) based on the number of mice with […] reconstitution (CD45.1) at 16 weeks.\nTo assay the effect of HSC lysosomal inhibition in a in vivo competitive long-term reconstitution assay: FACS-sorted MMP-low and -high LT-HSCs (CD45.1) were treated with Concanamycin A (ConA,40 nM) or DMSO control in 96 well plates containing StemSpan with SCF (100 ng/ml) and TPO (20 ng/ml) for 4 days, after which 50 cells from each group were mixed with 2×10^5 CD45.2 total bone marrow cells and injected into lethally irradiated CD45.2 recipients and reconstituted peripheral blood was monitored up to four months."}, "[3]": {"tested_on": "aged MMP-low and -high LT-HSCs transplanted into lethally irradiated mice", "assay": "Long-term in vivo competitive repopulation assay of aged HSCs after ex vivo ConA", "set-up": "species or system mouse", "procedure": "FIGS. 21A-21C show repression of lysosomal activity ex vivo greatly improves in vivo competitive repopulation of old HSCs. FIG. 21A is a schematic of long-term in vivo competitive repopulation assay. FACS-sorted (5000) aged MMP-low and -high (CD45.2) long-term (LT) HSCs were cultured in vitro in DMSO control or Con A (40 nM) for 4 days after which 100 cells from each group were injected into lethally irradiated recipient (CD45.1) mice along with 2×10^5 CD45.1 total bone marrow competitor cells (n=7). FIG. 21B is a graph showing contribution of donor-derived (CD45.2) cells to the peripheral blood (PB) of primary recipient mice (CD45.1) in a long-term competitive repopulation assay. FIG. 21C is a graph showing lineage output as a percentage of total CD45.2 donor-derived cells in primary recipients. Data expressed as Mean±SEM (**P<0.01, ***P<0.001). Note only ConA-treated old HSCs and not control-treated HSCs generate over 1% chimerism in transplanted animals after 21 weeks."}, "[4]": {"tested_on": "MMP-low and MMP-high HSCs (LSKCD150+CD48-)", "assay": "Single cell division assay", "format": "cell-based, mouse", "conditions": "for Number of wells with each number of cell division: 0 / Number of wells with each number of cell division: 1 / Number of wells with each number of cell division: Dead / Number of wells with each number of cell division: ≥2: 60 h", "procedure": "Single Cell Division Assay: Single cell cultures were carried out as previously described (Bernitz et al., “Hematopoietic Stem Cells Count and Remember Self-Renewal Divisions,” Cell 167(5): 1296-1309 (2016), which is hereby incorporated by reference in its entirety). Single MMP-low and MMP-high HSCs (LSKCD150^+CD48^−) isolated from GFP-transgenic mice were FACS sorted into individual wells of round-bottomed 96-well plates. Single cells were visually confirmed under light microscope and cultured in serum free Stemspan medium. Wells were supplemented with SCF (100 ng/ml) and TPO (20 ng/ml) (both from R&D system), were incubated at 37° C. in a humidified atmosphere with 5% CO2, and the number of cells per well was monitored daily. The final number of cell divisions per well was assessed at the indicated time points in each experiment. Treatments with concanamycin A (“ConA”) (40-100 nM) or DMSO control were added at the start of culture and left in the wells for the duration of the experiment unless otherwise stated. More than 200 cells per condition were analyzed. Cell Cycle Analysis—Pyronin Y staining. Pyronin Y staining was performed as described in Rimmele et al., “Mitochondrial Metabolism in Hematopoietic Stem Cells Requires Functional FOXO3,” EMBO Rep. 16: 1164-1176 (2015) and Yalcin et al., “Foxo3 Is Essential for the Regulation of Ataxia Telangiectasia Mutated and Oxidative Stress-mediated Homeostasis of Hematopoietic Stem Cells,” J. Biol. Chem. 283: 25692-25705 (2008), which are hereby incorporated by reference in their entirety. FACS-purified MMP-low and MMP-high LT-HSCs were stained with Hoechst 33342 ([…]) at 37° C. for 45 minutes, followed by staining with pyronin Y (1 mg/ml) for an additional 15 minutes at 37° C. Cells were then washed in cold PBS, and resuspended in IMDM+2% FBS. Samples were immediately analyzed by flow cytometry."}, "[5]": {"conditions": "aged HSCs, Con A 40 nM, two days"}, "[6]": {"conditions": "ConA 40 nM ex vivo 4 days, 50 cells transplanted"}, "[7]": {"conditions": "aging HSCs, ConA 40 nM, 60-hour"}}, "data": [{"smiles": "C/C=C/[C@H]1O[C@@](O)([C@@H](C)[C@H](O)[C@H](C)[C@H]2OC(=O)/C(OC)=C/C(C)=C/[C@@H](C)[C@@H](O)[C@@H](CC)[C@@H](O)[C@H](C)C/C(C)=C/C=C/[C@@H]2OC)C[C@@H](O[C@H]2C[C@@H](O)[C@H](OC(N)=O)[C@@H](C)O2)[C@@H]1C", "note": "[ConA, concanamycin A]", "values": [{"measurement": "enhanced frequency of LTC-ICs, MMP-high HSCs", "setting": "[1]; ConA 40 nM, 48-hour or 4-day", "result": 2.5, "unit": "fold"}, {"measurement": "enhanced frequency of LTC-ICs, MMP-low HSCs", "setting": "[1]; ConA 40 nM, 48-hour or 4-day", "result": 1.5, "unit": "fold"}, {"measurement": "size of LTC-IC-derived colonies", "setting": "[1]; ConA 40 nM, two days", "result": "increased size of colonies"}, {"measurement": "LTC-IC-derived colonies from aged HSCs", "setting": "[1]; [5]", "result": "increased the LTC-IC-derived colonies"}, {"measurement": "number of LTC-IC recovered from aged HSC cultures", "setting": "[1]; [5]", "result": "improved the number"}, {"measurement": "blood production in secondary transplants", "setting": "[2]; 38 weeks post-initial transplantation", "result": "increased balanced blood production"}, {"measurement": "production of lineages downstream of MMP-high HSCs", "setting": "[2]; ConA 40 nM ex vivo 4 days", "result": "balanced the production of lineages"}, {"measurement": "increase of in vivo competitive repopulation ability, MMP-high HSCs", "setting": "[2]; [6]", "result": "over 90 fold"}, {"measurement": "increase of in vivo competitive repopulation ability, MMP-low HSCs", "setting": "[2]; [6]", "result": 9, "unit": "fold"}, {"measurement": "HSC self-renewal in secondary transplantations", "setting": "[2]; young HSCs, ex vivo ConA", "result": "increased HSC self-renewal"}, {"measurement": "lineage output of aged MMP-high HSCs", "setting": "[3]; 4-day cultured, Con A 40 nM", "result": "balanced their lineage output"}, {"measurement": "competitive repopulation ability of aged MMP-high HSCs", "setting": "[3]; 4-day cultured, Con A 40 nM, 100 cells", "result": "remarkably improved"}, {"measurement": "self-renewal of old HSCs and their balance blood production", "setting": "[3]; ex vivo ConA treatment (FIG. 19 and FIG. 20)", "result": "improves significantly"}, {"measurement": "self-renewal of aged HSCs in secondary transplants", "setting": "[3]; mice receiving control-treated HSCs died", "result": "improved self-renewal in secondary transplants"}, {"measurement": "survival of recipients in secondary transplantation", "setting": "[3]; old HSCs, 4-day ex vivo ConA, not control-treated", "result": "survive in secondary transplantation"}, {"measurement": "chimerism in transplanted animals", "setting": "[3]; old HSCs, after 21 weeks, control-treated HSCs do not", "result": "over 1%"}, {"measurement": "frequency of non-dividing MMP-high GFP+ HSCs", "setting": "[4]; ConA 40 nM, up to 60 hours", "result": "significantly increased"}, {"measurement": "non-dividing MMP-low HSCs in culture", "setting": "[4]; ConA 40 nM, up to 60 hours", "result": "only a slight effect"}, {"measurement": "Number of wells with each number of cell division: 0", "setting": "[4]; MMP High + Con A (40 nM)", "result": "23.8 ± 1.33"}, {"measurement": "Number of wells with each number of cell division: 1", "setting": "[4]; MMP High + Con A (40 nM)", "result": "8.8 ± 0.84"}, {"measurement": "Number of wells with each number of cell division: Dead", "setting": "[4]; MMP High + Con A (40 nM)", "result": "14.4 ± 0.92"}, {"measurement": "Number of wells with each number of cell division: ≥2", "setting": "[4]; MMP High + Con A (40 nM)", "result": "7.4 ± 2.62"}, {"measurement": "Number of wells with each number of cell division: 0", "setting": "[4]; MMP Low + Con A (40 nM)", "result": "35.8 ± 8.89"}, {"measurement": "Number of wells with each number of cell division: 1", "setting": "[4]; MMP Low + Con A (40 nM)", "result": "7.4 ± 1.24"}, {"measurement": "Number of wells with each number of cell division: Dead", "setting": "[4]; MMP Low + Con A (40 nM)", "result": "7 ± 1.51"}, {"measurement": "Number of wells with each number of cell division: ≥2", "setting": "[4]; MMP Low + Con A (40 nM)", "result": "4.6 ± 1.53"}, {"measurement": "cell death of aging HSC in culture", "setting": "[4]; [7]", "result": "without any increase in cell death"}, {"measurement": "division of aging HSC in culture", "setting": "[4]; [7]", "result": "divided less than non-treated HSC"}]}]}
